The subject of data set [1] is JeKo-1. Briefly: cells. The following applies: Homo sapiens.
Data set [2] addresses T1, Tyrosine-protein kinase BTK (Homo sapiens, UniProt Q06187). Briefly: Inhibition of BTK (unknown origin).
Data set [3] is described as follows: Tmax in Sprague-Dawley rat at 5 to 10 mg/kg, po administered as cassette dose measured upto 24 hrs by LC-MS analysis. Type of data set: ADME, organism-based. To be noted: in vivo, dose 5-10 mg/kg.
In data set [4] the target is T1, Tyrosine-protein kinase BTK. The data set is described as follows: Induction of BTK degradation in human MINO cells incubated for 24 hrs by Western blot. It is filed as cell-based. The following applies: dose 1-1000 nM, DDE = dose-dependent effect. (In western blotting, separated proteins are transferred to a membrane and probed.)
Data set [5] in a line: Half life in Sprague-Dawley rat at 5 to 10 mg/kg, po administered as cassette dose measured upto 24 hrs by LC-MS analysis. To be noted: in vivo, dose 5-10 mg/kg. It is filed as ADME, organism-based.
Data set [6] relates to JeKo-1. Briefly: cells. The following applies: Homo sapiens. This is another data set of the same source.
A short description of data set [7]: Cmax in Sprague-Dawley rat at 5 to 10 mg/kg, po administered as cassette dose measured upto 24 hrs by LC-MS analysis. It is filed as ADME, organism-based. The arrangement: time < 24 hrs, route po. To be noted: in vivo, dose 5-10 mg/kg.
Data set [8] can be described thus: Dose normalized AUC (0 to t) in Sprague-Dawley rat at 5 to 10 mg/kg, po administered as cassette dose measured upto 24 hrs by LC-MS analysis. It is filed as ADME, organism-based. The following applies: in vivo, dose 5-10 mg/kg.
Data set [9] can be described thus: AUC (0 to t) in Sprague-Dawley rat at 5 to 10 mg/kg, po administered as cassette dose measured upto 24 hrs by LC-MS analysis. Type of data set: ADME, organism-based. Also noted: time < 24 hrs, route po. The following applies: in vivo, dose 5-10 mg/kg.
For data set [10], the target named is T1, Tyrosine-protein kinase BTK. The data set is described as follows: Induction of BTK degradation in human MINO cells at 1000 nM incubated for 24 hrs by Western blot. It is filed as cell-based.
Data set [11] can be described thus: AUC (0 to t) in ICR mouse at 100 mg/kg, po measured upto 48 hrs by LC/MS analysis. It is filed as ADME, organism-based. Also noted: time < 48 hrs, dose 100 mg/kg, route po. To be noted: in vivo.
The nature of data set [12]: Half life in ICR mouse at 100 mg/kg, po measured upto 48 hrs by LC/MS analysis. The following applies: in vivo. It is filed as ADME, organism-based.
Data set [13] is described as follows: Cmax in ICR mouse at 100 mg/kg, po measured upto 48 hrs by LC/MS analysis. It is filed as ADME, organism-based. Also noted: dose 100 mg/kg, time < 48 hrs, route po. The following applies: in vivo.
Data set [14] can be described thus: Tmax in ICR mouse at 100 mg/kg, po measured upto 48 hrs by LC/MS analysis. Type of data set: ADME, organism-based. The following applies: in vivo.
Data set [15] is described as follows: AUC (0 to infinity) in ICR mouse at 100 mg/kg, po measured upto 48 hrs by LC/MS analysis. Type of data set: ADME, organism-based. The arrangement: time < 48 hrs, dose 100 mg/kg, route po. The following applies: in vivo.
Data set [16] is described as follows: Tmax in Sprague-Dawley rat at 10 mg/kg, po administered as cassette dose measured upto 24 hrs by LC-MS analysis. The following applies: in vivo. It is filed as ADME, organism-based.
Data set [17] is described as follows: Cmax in Sprague-Dawley rat at 10 mg/kg, po administered as cassette dose measured upto 24 hrs by LC-MS analysis. It is filed as ADME, organism-based. The following applies: in vivo. Also noted: time < 24 hrs, dose 10 mg/kg, route po.
For data set [18], the target named is Tyrosine-protein kinase BTK (Mus musculus) (UniProt P35991). The data set is described as follows: In vivo induction of BTK degradation in ICR mouse monocytes at 20 mg/kg, po after 8 hrs by Western blot analysis relative to control. The following applies: Monocyte. Type of data set: functional, organism-based.
Tyrosine-protein kinase BTK (Mus musculus), sequence (P35991 whole entry): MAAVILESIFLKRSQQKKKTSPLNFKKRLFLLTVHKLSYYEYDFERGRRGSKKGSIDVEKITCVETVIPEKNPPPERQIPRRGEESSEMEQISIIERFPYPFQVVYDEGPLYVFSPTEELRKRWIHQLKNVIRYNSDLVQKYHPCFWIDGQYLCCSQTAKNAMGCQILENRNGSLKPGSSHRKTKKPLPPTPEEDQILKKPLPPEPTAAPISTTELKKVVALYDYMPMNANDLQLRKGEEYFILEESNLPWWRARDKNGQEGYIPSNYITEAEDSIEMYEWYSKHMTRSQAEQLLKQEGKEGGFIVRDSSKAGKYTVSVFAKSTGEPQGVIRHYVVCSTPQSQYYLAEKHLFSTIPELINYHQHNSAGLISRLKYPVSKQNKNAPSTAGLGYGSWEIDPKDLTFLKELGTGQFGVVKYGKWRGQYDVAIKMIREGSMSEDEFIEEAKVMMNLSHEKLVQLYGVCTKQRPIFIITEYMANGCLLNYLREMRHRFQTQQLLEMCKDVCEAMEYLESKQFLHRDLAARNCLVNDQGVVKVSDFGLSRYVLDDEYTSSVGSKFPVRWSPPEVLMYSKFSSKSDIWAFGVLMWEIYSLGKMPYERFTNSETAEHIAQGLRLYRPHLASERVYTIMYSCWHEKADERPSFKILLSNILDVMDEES
Data set [19] is described as follows: Cmax in ICR mouse at 20 mg/kg, po administered as single dose measured upto 48 hrs by LC-MS analysis. It is filed as ADME, organism-based. The arrangement: dose 20 mg/kg, time < 48 hrs, route po. The following applies: in vivo.
The next data set deals with TMD8. The data set is described as follows: cells. To be noted: Homo sapiens.
Data set [20] can be described thus: Dose normalized AUC (0 to t) in Sprague-Dawley rat at 10 mg/kg, po administered as cassette dose measured upto 24 hrs by LC-MS analysis. It is filed as ADME, organism-based. The following applies: in vivo.
The nature of data set [21]: Half life in Sprague-Dawley rat at 10 mg/kg, po administered as cassette dose measured upto 24 hrs by LC-MS analysis. To be noted: in vivo. It is filed as ADME, organism-based.
A short description of data set [22]: Tmax in ICR mouse at 20 mg/kg, po administered as single dose measured upto 48 hrs by LC-MS analysis. The following applies: in vivo. Type of data set: ADME, organism-based.
Data set [23] can be described thus: AUC (0 to infinity) in ICR mouse at 20 mg/kg, po administered as single dose measured upto 48 hrs by LC-MS analysis. The arrangement: dose 20 mg/kg, time < 48 hrs, route po. To be noted: in vivo. It is filed as ADME, organism-based.
Data set [24] is described as follows: AUC (0 to t) in Sprague-Dawley rat at 10 mg/kg, po administered as cassette dose measured upto 24 hrs by LC-MS analysis. It is filed as ADME, organism-based. Also noted: dose 10 mg/kg, time < 24 hrs, route po. To be noted: in vivo.
The subject of data set [25] is OCI-Ly10. Briefly: cells. The following applies: Homo sapiens.
In another data set the test system is MM1.S. The data set is described as follows: cells. To be noted: Homo sapiens.
In data set [26] the target is T1, Tyrosine-protein kinase BTK. The data set is described as follows: Induction of BTK degradation in human MINO cells incubated for 24 hrs by Western blot analysis. Type of data set: cell-based. To be noted: dose 1-1000 nM, DDE = dose-dependent effect.
A short description of data set [27]: Half life in ICR mouse at 20 mg/kg, po administered as single dose measured upto 48 hrs by LC-MS analysis. It is filed as ADME, organism-based. To be noted: in vivo.
Data set [28] is described as follows: AUC (0 to t) in ICR mouse at 20 mg/kg, po administered as single dose measured upto 48 hrs by LC-MS analysis. Type of data set: ADME, organism-based. Also noted: dose 20 mg/kg, time < 48 hrs, route po. To be noted: in vivo.
Another data set can be described thus: cells. The following applies: Homo sapiens, MINO.
Data set [29] concerns OCI-Ly10. The data set is described as follows: Antitumor activity against human OCILY10 cells xenografted in SCID mouse assessed as tumor growth inhibition at 10 mg/kg, po qd measured after 17 days relative to control. The following applies: time 17 day. Type of data set: functional. The arrangement: scale not given: the % may be the effect or the level left.

T1 sequence (Q06187 whole entry): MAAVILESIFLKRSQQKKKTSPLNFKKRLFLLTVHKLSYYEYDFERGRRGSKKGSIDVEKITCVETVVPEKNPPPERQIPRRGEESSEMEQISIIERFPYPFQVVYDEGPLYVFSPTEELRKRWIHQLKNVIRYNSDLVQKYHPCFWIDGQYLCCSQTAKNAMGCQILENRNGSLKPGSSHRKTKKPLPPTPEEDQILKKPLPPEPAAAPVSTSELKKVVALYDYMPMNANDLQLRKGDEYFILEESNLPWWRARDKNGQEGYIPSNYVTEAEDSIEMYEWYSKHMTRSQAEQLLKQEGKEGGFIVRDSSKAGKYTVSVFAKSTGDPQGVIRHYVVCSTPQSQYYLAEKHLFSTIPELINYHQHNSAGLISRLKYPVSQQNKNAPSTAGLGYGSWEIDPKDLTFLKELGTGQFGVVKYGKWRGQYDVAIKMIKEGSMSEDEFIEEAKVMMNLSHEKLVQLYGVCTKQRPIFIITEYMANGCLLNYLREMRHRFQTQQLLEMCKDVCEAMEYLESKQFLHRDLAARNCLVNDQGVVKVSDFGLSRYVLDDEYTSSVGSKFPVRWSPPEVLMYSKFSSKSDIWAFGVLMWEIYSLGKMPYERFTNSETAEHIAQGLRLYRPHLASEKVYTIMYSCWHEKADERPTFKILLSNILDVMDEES

Take `Nc1ncnc2c1c(-c1ccc(Oc3ccccc3)cc1)nn2[C@@H]1CCCN(C(=O)[C@H]2CC[C@H](C(=O)N3CCN(CC#Cc4ccc5c(c4)CN(C4CCC(=O)NC4=O)C5=O)CC3)CC2)C1` (stereo partly specified): the IC50 (commonly the concentration needed to halve the response being measured) in the data set with JeKo-1 [1] was 1940 nM; in data set [2] it was 9 nM; in the data set on JeKo-1 [6], > 20000 nM. The Tmax – broadly, the time from dosing to the highest level – in data set [3] was 36 min. The Activity result in [4] is “Dde”. In data set [5], the half-life (usually the time needed for the level to fall by half in the phase considered) is 48 min. Also, the highest level in data set [7] (Cmax) was 16 ng/mL. In [8], this molecule yielded an AUCt/dose of 2 ng·h/mL/mg. In addition, in data set [9], the AUC(0-t) (commonly exposure summed from dosing to a finite time, without extrapolation to infinity) at 24 h is 24 ng·h/mL.
Take `Nc1ncnc2c1c(-c1ccc(Oc3ccccc3)cc1)nn2[C@@H]1CCCN(C(=O)CCCC(=O)NCC#CCN2CCN(CC#Cc3ccc4c(c3)CN(C3CCC(=O)NC3=O)C4=O)CC2)C1` (stereo partly specified): inhibition in [2] was half-maximal at 9 nM (IC50). The figures for the Activity entry in data set [4] and in data set [10] were “Dde” and > 50%, respectively.
Consider `Nc1ncnc2c1c(-c1ccc(Oc3ccccc3)cc1)nn2[C@@H]1CCCN(C(=O)/C=C/C(=O)N2CCN(CC#Cc3ccc4c(c3)CN(C3CCC(=O)NC3=O)C4=O)CC2)C1` (stereo partly specified), for which the results for the IC50 (with JeKo-1 [1]; in data set [2]; in the data set on JeKo-1 [6]) were 296 nM, 9 nM and 4960 nM, respectively. Besides, the Activity result in data set [4] was “Dde”.
As to `Nc1ncnc2c1c(-c1ccc(Oc3ccccc3)cc1)nn2[C@@H]1CCCN(C(=O)[C@H]2CCCC[C@H]2C(=O)NCC#CCN2CCN(CC#Cc3ccc4c(c3)CN(C3CCC(=O)NC3=O)C4=O)CC2)C1` (stereo partly specified), the IC50 is 792 nM with JeKo-1 [1], 9 nM in [2] and > 20000 nM in the data set on JeKo-1 [6]. Further, the Tmax in [3] was 36 min; in [14] it was 42 min. The Activity result in data set [4] is “Dde”. The half-life in data set [5] was 84 min; in data set [12] it was 60 min. This molecule showed an AUC(0-t) at 48 h in data set [11] of 62 ng·h/mL. The Cmax – broadly, the peak of the concentration-time curve – in data set [7] is 125 ng/mL; in data set [13], 52 ng/mL. This molecule displayed an AUCt/dose in data set [8] of 25 ng·h/mL/mg. In [9], this molecule showed an AUC(0-t) at 24 h of 247 ng·h/mL. In [15], the AUC(0-inf) (in general, the area under the concentration-time curve extrapolated to infinity) was found to be 81 ng·h/mL.
The molecule `Nc1ncnc2c1c(-c1ccc(Oc3ccccc3)cc1)nn2[C@@H]1CCCN(C(=O)[C@H]2CCCC[C@H]2C(=O)N2CCN(CC#Cc3ccc4c(c3)CN(C3CCC(=O)NC3=O)C4=O)CC2)C1` (stereo partly specified) displayed an IC50 in data set [2] of 9 nM. Moreover, in [3], the Tmax stood at 30 min. Also, in [4], the Activity result was “Dde”. Besides, in data set [5], the half-life is 120 min. This molecule also came in with a Cmax in [7] of 29 ng/mL. The same molecule came in with an AUCt/dose in data set [8] of 6 ng·h/mL/mg. This molecule also displayed an AUC(0-t) at 24 h in data set [9] of 58 ng·h/mL.
On to `Nc1ncnc2c1c(-c1ccc(Oc3ccccc3)cc1)nn2[C@@H]1CCCN(C(=O)CC(=O)NCC#CCN2CCN(CC#Cc3ccc4c(c3)CN(C3CCC(=O)NC3=O)C4=O)CC2)C1` (stereo partly specified), for which the time of peak concentration (Tmax) in data set [16] worked out at 42 min; in data set [22] it was 18 min. In addition, the IC50 in the data set on JeKo-1 [1] was 6570 nM; in [2], 24.4 nM; in the data set on TMD8, 106 nM; in the data set on JeKo-1 [6], 20000 nM; with OCI-Ly10 [25], 40.2 nM; in the data set on MM1.S, > 20000 nM. The molecule further displayed an IC50 in “cells” of 800 nM. The figures for the Cmax in data set [17] and in data set [19] were 461 ng/mL and 20 ng/mL, respectively. The Activity in data set [18] is 16.5%; in [26], “Dde”. In data set [20], this molecule came in with an AUCt/dose of 215 ng·h/mL/mg. Further, the half-life is 474 min in data set [21] and 318 min in data set [27]. The molecule also displayed an AUC(0-inf) in [23] of 55 ng·h/mL. The molecule also showed an AUC(0-t) at 24 h in [24] of 21.5 ng·h/mL. Further, the AUC(0-t) at 48 h in data set [28] is 39 ng·h/mL.
As for `Nc1ncnc2c1c(-c1ccc(Oc3ccccc3)cc1)nn2[C@@H]1CCCN(C(=O)CCC(=O)N2CCN(CC#Cc3ccc4c(c3)CN(C3CCC(=O)NC3=O)C4=O)CC2)C1` (stereo partly specified), the Tmax in data set [16] was determined as 42 min; in data set [22], 30 min. Also, the IC50 came to 825 nM in the data set on JeKo-1 [1]; 6.3 nM in [2]; 16.3 nM with TMD8; 11600 nM in the data set on JeKo-1 [6]; 12.9 nM in the data set with OCI-Ly10 [25]; 1920 nM in the data set with MM1.S. Besides, it took 123 nM to reach half-maximal inhibition in the data set “cells” (IC50). The Cmax in [17] is 84 ng/mL; in [19], 224 ng/mL. Besides, the results for the Activity in [18] and in data set [26] were 37.2% and “Dde”, respectively. The molecule further yielded an AUCt/dose in data set [20] of 29 ng·h/mL/mg. The half-life in data set [21] was 390 min; in data set [27], 156 min. This molecule also registered an AUC(0-inf) in data set [23] of 404 ng·h/mL. In data set [24], the AUC(0-t) at 24 h came to 288 ng·h/mL. This molecule registered an AUC(0-t) at 48 h in data set [28] of 374 ng·h/mL.
As for `C=CC(=O)N1CCC[C@@H](n2nc(-c3ccc(Oc4ccccc4)cc3)c3c(N)ncnc32)C1` [IBRUTINIB], the Activity in the data set on OCI-Ly10 [29] worked out at 50.7%.
